Legend:
[1] = Analysis for active in the sealant without and after water storage (retention / leaching); format: physicochemical; conditions: silicone; for Active [ppm] Oit: oxime basis, 1000 ppm added
Method: These sections, described below as test specimens, were subjected, both without water storage and after 2 days of water storage in fully demineralized water, with a change of water at 24 hours, to the ISO 846 test, part B. In this test, the test specimens were placed on carbon-containing nutrient media (complete agar) for monitoring of the fungicidal action, and were then sprayed with a mixture of fungal spores; 0.1 ml of suspension per test specimen.
These sealants were analyzed for the amounts of OIT present, both without water storage and after 2 days of water storage, and the leaching (%) was calculated.

[2] = tested on: mixture of fungal spores (Aspergillus niger, Alternaria alternata, Penicillium funiculosum, Paecilomyces variotii, Gliocladium virens, Chaetomium globosum); test: Microbiological test along the lines of EN ISO 846 part B: fungal growth on sealant test specimens on complete agar; format: cell-based; set-up: key to Fungal growth after 28 d Method B Complete agar a / Fungal growth after 28 d Method B Complete agar b: 0: No growth evident when viewed with a microscope.; 1: Slight growth, no growth evident to the naked eye, readily apparent microscopically.; Slight growth, readily apparent macroscopically, growth over not more than 25% of the sample surface.; 3: Moderate growth, growth over up to 50% of the sample surface.; 4: Severe growth, growth over more than 50% of the sample surface, but not over the entire area.; 5: Severe growth over the entire sample surface; conditions: silicone; for Fungal growth after 28 d Method B Complete agar a: duplicate a; for Fungal growth after 28 d Method B Complete agar b: duplicate b
Method: The microbiological tests were carried out each in duplicate determinations along the lines of the standard EN ISO 846 B. For this purpose the sealants themselves were applied to inert support material (e.g., glass plates) approximately 2 mm thick, and, after curing, were cut into sections measuring 3×3 cm.
[…] In this test, the test specimens were placed on carbon-containing nutrient media (complete agar) for monitoring of the fungicidal action, and were then sprayed with a mixture of fungal spores; 0.1 ml of suspension per test specimen.
The spore suspension contained 10^6 CFU/ml and comprised the following fungi:
The samples thus inoculated were incubated at 25° C. for 28 days. This was followed by a visual evaluation of the sample surface. Where no growth was evident with the naked eye, the test took place with the assistance of a microscope. The ISO 846 tests were evaluated using the following scheme: • 0 No growth evident when viewed with a microscope. • 1 Slight growth, no growth evident to the naked eye, readily apparent microscopically. • 2 Slight growth, readily apparent macroscopically, growth over not more than 25% of the sample surface. • 3 Moderate growth, growth over up to 50% of the sample surface. • 4 Severe growth, growth over more than 50% of the sample surface, but not over the entire area. • 5 Severe growth over the entire sample surface.

[3] = acetoxy basis, 500 ppm, water storage 0 d
[4] = acetoxy basis, 500 ppm, water storage 3 months (once a week 24 hour storage in fully demineralized water)
[5] = acetoxy basis, 1000 ppm, water storage 0 d
[6] = acetoxy basis, 1000 ppm, water storage 3 months (once a week 24 hour storage in fully demineralized water)
[7] = oxime basis, 500 ppm, water storage 0 d
[8] = oxime basis, 500 ppm, water storage 2 d
[9] = oxime basis, 1000 ppm, water storage 0 d
[10] = oxime basis, 1000 ppm, water storage 2 d

## CCCCCCCCn1sccc1=O [OIT, 2-n-octyl-4-isothiazolin-3-one]
[1]; acetoxy system, 400 ppm of OIT introduced, after 2 days of water storage
  Amount of active (ppm) With water storage: 265 ppm
[1]; acetoxy system, 400 ppm of OIT introduced, calculated from amounts without and after 2 days of water storage
  % leaching: 37%
[1]; acetoxy system, 400 ppm of OIT introduced, without water storage
  Amount of active (ppm) Without water storage: 420 ppm
[1]; 0 d (before water storage)
  Active [ppm] Oit: 740 ppm
[1]; 2 d (after water storage)
  Active [ppm] Oit: 230 ppm
[2]; [3]
  Fungal growth after 28 d Method B Complete agar a: 1
  Fungal growth after 28 d Method B Complete agar b: 2 (Slight growth, readily apparent macroscopically, growth over not more than 25% of the sample surface.)
[2]; [4]
  Fungal growth after 28 d Method B Complete agar a: 5
  Fungal growth after 28 d Method B Complete agar b: 5
[2]; [5]
  Fungal growth after 28 d Method B Complete agar a: 0
  Fungal growth after 28 d Method B Complete agar b: 0
[2]; [6]
  Fungal growth after 28 d Method B Complete agar a: 4 (Severe growth, growth over more than 50% of the sample surface, but not over the entire area.)
  Fungal growth after 28 d Method B Complete agar b: 5
[2]; acetoxy basis, after the 3-month water storage cycles
  fungal growth (in words): heavily overgrown
[2]; acetoxy basis, without water storage (0d)
  fungal growth / action (in words): good action
[2]; [7]
  Fungal growth after 28 d Method B Complete agar a: 0
  Fungal growth after 28 d Method B Complete agar b: 1
[2]; [8]
  Fungal growth after 28 d Method B Complete agar a: 3 (Moderate growth, growth over up to 50% of the sample surface.)
  Fungal growth after 28 d Method B Complete agar b: 3 (Moderate growth, growth over up to 50% of the sample surface.)
[2]; [9]
  Fungal growth after 28 d Method B Complete agar a: 0
  Fungal growth after 28 d Method B Complete agar b: 0
[2]; [10]
  Fungal growth after 28 d Method B Complete agar a: 3 (Moderate growth, growth over up to 50% of the sample surface.)
  Fungal growth after 28 d Method B Complete agar b: 2 (Slight growth, readily apparent macroscopically, growth over not more than 25% of the sample surface.)
[2]; oxime basis, after water storage (2d)
  fungal growth (in words): moderately severe growth

## COC(=O)Nc1nc2ccccc2[nH]1 [carbendazim]
[2]; [3]
  Fungal growth after 28 d Method B Complete agar a: 3 (Moderate growth, growth over up to 50% of the sample surface.)
  Fungal growth after 28 d Method B Complete agar b: 4 (Severe growth, growth over more than 50% of the sample surface, but not over the entire area.)
[2]; [4]
  Fungal growth after 28 d Method B Complete agar a: 5
  Fungal growth after 28 d Method B Complete agar b: 5
[2]; acetoxy basis, 1000 ppm of active, without water storage (0d)
  fungal colonization (in words): slight colonization
[2]; [5]
  Fungal growth after 28 d Method B Complete agar a: 2 (Slight growth, readily apparent macroscopically, growth over not more than 25% of the sample surface.)
  Fungal growth after 28 d Method B Complete agar b: 2 (Slight growth, readily apparent macroscopically, growth over not more than 25% of the sample surface.)
[2]; [6]
  Fungal growth after 28 d Method B Complete agar a: 4 (Severe growth, growth over more than 50% of the sample surface, but not over the entire area.)
  Fungal growth after 28 d Method B Complete agar b: 5
[2]; acetoxy basis, both 500 and 1000 ppm, after the 3-month water storage cycle
  fungal growth (in words): severe fungal growth

Reference: US20100099793A1, “Gluing and Sealing Compounds Having Antimicrobial Properties” (Thor GmbH, priority 2006, published 2010)
